Test results reported in patent publication US8115033B2, “3-(4-hydroxy-3-methoxyphenyl)-1-(4-hydroxyphenyl)-1-propanone and use thereof as an antimicrobial active ingredient” (Symrise AG, priority 2007, dated 2012).
Converted amounts (≈) assume the structure as drawn.

Columns and labels:
[1] = test system: microorganisms which cause body odor; test: in vivo sniffing tests on human test subjects suffering from severe body odor; conditions: human test subjects with severe body odor
[2] = test system: Brevibacterium epidermidis (ATCC 35514); test: quantitative suspension test; format: cell-based
[3] = test system: Staphylococcus epidermidis (ATCC 12228); test: quantitative suspension test; format: cell-based
[4] = investigations into chemical properties (stability); format: physicochemical
Description: In addition, in pure form, the compound according to the invention of the formula 1 is a white solid which forms a colorless solution in (cosmetic and/or pharmaceutical) carriers; furthermore, no discoloration was observed after incorporation of the compound according to the invention of the formula 1 in cosmetic products, in medical devices and in pharmaceutical preparations.

[5] = test system: Corynebacterium xerosis (DSM 20743); test: quantitative suspension test; format: cell-based
[6] = test system: Brevibacterium epidermidis (ATCC 35514); test: turbidimetric growth-curve MIC determination; format: cell-based; conditions: turbidimetry 620 nm, 16 h, 37° C.
Description: (§1) The recognition that 3-(4-hydroxy-3-methoxyphenyl)-1-(4-hydroxyphenyl)-1-propanone of the formula 1 is very particularly suitable for combating microorganisms which are responsible for body odor is based on series of investigations relating to the particularly relevant microorganisms Staphylococcus epidermidis, Corynebacterium xerosis and Brevibacterium epidermidis. The antimicrobial action of 3-(4-hydroxy-3-methoxyphenyl)-1-(4-hydroxyphenyl)-1-propanone is here detected with the assistance of a turbidimetric measurement method. Turbidity measurement is used to establish growth curves for the particular microorganism in the presence and absence of an antimicrobial active ingredient. A possible inhibitory action of the test substance used is identified from the profile of the growth curves. Solutions with saline or DMSO for 100% growth are prepared as a negative control. The active substances to be investigated are first diluted in DMSO in reaction vessels. Dilution is carried out in accordance with the concentration range to be tested and corresponds in each case to 100 times the concentration of the subsequent final concentration in the test. Testing is usually begun with a final concentration of 2000 ppm in the test. Growth curves at final concentrations of 1000 ppm, 500 ppm, 250 ppm, 125 ppm, 64 ppm, 32 ppm, 16 ppm and 8 ppm are subsequently determined. The bacterial cultures are then incubated in the presence of the various final concentrations of antimicrobial active ingredient for 16 h (incubation temperature: 37° C.). The absorption values (wavelength 620 nm; measurement interval: 20 minutes) obtained over the 16 hour period of turbidimetric measurement are recorded and exported into the spreadsheet program MS Excel. Means from in each case three parallel batches are calculated and used as the basis for establishing growth curves. The curves of the individual test sample concentrations are compared with those for the negative controls and the MIC value (minimum inhibitory concentration) is determined. […]

[7] = test system: Staphylococcus epidermidis (ATCC 12228); test: turbidimetric growth-curve MIC determination; format: cell-based; conditions: turbidimetry 620 nm, 16 h, 37° C.
Description: as §1

[8] = test system: Corynebacterium xerosis (DSM 20743); test: turbidimetric growth-curve MIC determination; format: cell-based; conditions: DSM20743, turbidimetry 620 nm, 16 h, 37° C., read-out: MIC value (complete inhibition of growth)
Description: as §1

COc1cc(CCC(=O)c2ccc(O)cc2)ccc1O [3-(4-hydroxy-3-methoxyphenyl)-1-(4-hydroxyphenyl)-1-propanone]
antimicrobial activity (body odor) [1]: confirm the antimicrobial activity | antimicrobial activity [2]: confirm the antimicrobial activity | antimicrobial activity [3]: confirm the antimicrobial activity | temperature stability [4]: elevated temperature stability | stability over pH values ([4]; wide range of pH values): high stability over a wide range of pH values | antimicrobial activity [5]: confirm the antimicrobial activity | concentration giving inhibition of the growth [6]: below 0.1 wt. % | concentration giving inhibition of the growth [7]: below 0.1 wt. % | MIC [8]: 500 µg/mL (≈ 1840 µM)
